How the values were obtained:
Format in all cases: in vivo
[1] = system: Thrips tabaci; assay: Thrips tabaci (onion thrips): feeding/contact activity; details: 144 h, application rate 200 ppm, Thrips population of mixed ages, 6 days after infestation, read-out: mortality
Procedure: Sunflower leaf discs were placed on agar in 24-well microtiter plates and sprayed with aqueous test solutions prepared from 10'000 ppm DMSO stock solutions. After drying the leaf discs were infested with a Thrips population of mixed ages. The samples were assessed for mortality 6 days after infestation.

[2] = system: Euschistus heros; assay: Euschistus heros (neotropical brown stink bug), sprayed soybean leaves; details: 120 h, application rate 200 ppm, N2 nymphs, 5 days after infestation, read-out: effect in at least one of the two categories (mortality or growth inhibition)
Procedure, shortened: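 Scored 5 days post-infestation versus untreated controls, for both mortality and growth inhibition: N2 nymphs placed on agar-mounted soybean leaves previously sprayed at 200 ppm with aqueous test solutions from DMSO stocks and left to dry.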

[3] = system: Myzus persicae; assay: Myzus persicae (green peach aphid): feeding/contact activity; details: 144 h, application rate 200 ppm, aphid population of mixed ages, 6 days after infestation, read-out: mortality
Procedure: Sunflower leaf discs were placed onto agar in a 24-well microtiter plate and sprayed with aqueous test solutions prepared from 10'000 ppm DMSO stock solutions. After drying, the leaf discs were infested with an aphid population of mixed ages. The samples were assessed for mortality 6 days after infestation.

[4] = system: Diabrotica balteata; assay: Diabrotica balteata (corn root worm), sprayed maize sprouts; details: 96 h, application rate 200 ppm, L2 larvae, 4 days after infestation, read-out: effect in at least one of the two categories (mortality or growth inhibition)
Procedure, shortened: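 Read-out at 4 days post-infestation: mortality and growth inhibition relative to untreated samples. Test solutions (200 ppm, from DMSO stocks) were sprayed onto agar-held maize sprouts, which after drying received 6–10 L2 larvae per well.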

[5] = system: Spodoptera littoralis; assay: Spodoptera littoralis (Egyptian cotton leaf worm), sprayed cotton leaf discs; details: foliar, 72 h, application rate 200 ppm, L1 larvae, 3 days after infestation, read-out: control (mortality, anti-feeding effect, growth inhibition)
Procedure, shortened: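 Five first-instar larvae placed on dried cotton leaf discs (on agar) previously sprayed with aqueous dilutions of 10'000 ppm DMSO stocks. Scored at 3 days against untreated discs for mortality, feeding inhibition and growth inhibition; any category above untreated counts as control.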

[6] = system: Tetranychus urticae; assay: Tetranychus urticae (two-spotted spider mite): feeding/contact activity; details: 192 h, application rate 200 ppm, mixed population (mobile stages), 8 days after infestation, read-out: mortality
Procedure: Bean leaf discs on agar in 24-well microtiter plates were sprayed with aqueous test solutions prepared from 10'000 ppm DMSO stock solutions. After drying the leaf discs were infested with a mite population of mixed ages. The samples were assessed for mortality on mixed population (mobile stages) 8 days after infestation.

[7] = system: Plutella xylostella; assay: Plutella xylostella (diamond back moth), artificial diet; details: 120 h, application rate 200 ppm, L2 larvae, 5 days after infestation, read-out: effect in at least one of the two categories (mortality or growth inhibition)
Procedure, shortened: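 L2 larvae (10-15 per well) fed on compound-treated, dried artificial diet; test solutions diluted in water from 10'000 ppm DMSO stocks. Readout 5 days post-infestation as mortality or growth inhibition versus untreated diet, with at least 80% effect at 200 ppm as threshold.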

Cc1cc(C2=NO[C@@](c3cc(Cl)c(F)c(Cl)c3)(C(F)(F)F)C2)ccc1C(=O)NC1CON(S(=O)(=O)N(C)C(=O)c2ccccc2)C1 (stereo partly drawn) [Compound A80, N-[2-[benzoyl(methyl)sulfamoyl]isoxazolidin-4-yl]-4-[(5S)-5-(3,5-dichloro-4-fluoro-phenyl)-5-(trifluoromethyl)-4H-isoxazol-3-yl]-2-methyl-benzamide]
≥ 80%: mortality at 200 ppm [1] | percent effect (mortality or growth inhibition) at 200 ppm [2] | mortality at 200 ppm [3] | percent effect (mortality or growth inhibition) at 200 ppm [4] | mortality at 200 ppm [5] | mortality at 200 ppm [6] | percent effect (mortality or growth inhibition) at 200 ppm [7]

Cc1cc(C2=NO[C@](c3cc(Cl)c(F)c(Cl)c3)(C(F)(F)F)C2)ccc1C(=O)N[C@@H]1CON(S(=O)(=O)C(F)(F)F)C1 [Compound A223, 4-[(5R)-5-(3,5-dichloro-4-fluorophenyl)-5-(trifluoromethyl)-4H-1,2-oxazol-3-yl]-2-methyl-N-[(4S)-2-(trifluoromethylsulfonyl)-1,2-oxazolidin-4-yl]benzamide]
≥ 80%: mortality at 200 ppm [1] | percent effect (mortality or growth inhibition) at 200 ppm [2] | mortality at 200 ppm [3] | percent effect (mortality or growth inhibition) at 200 ppm [4] | mortality at 200 ppm [5] | mortality at 200 ppm [6] | percent effect (mortality or growth inhibition) at 200 ppm [7]

COCN(C)S(=O)(=O)N1CC(NC(=O)c2ccc(C3=NO[C@@](c4cc(Cl)c(Cl)c(Cl)c4)(C(F)(F)F)C3)cc2C)CO1 (stereo partly shown) [Compound A96]
≥ 80%: mortality at 200 ppm [1] | percent effect (mortality or growth inhibition) at 200 ppm [2] | mortality at 200 ppm [3] | percent effect (mortality or growth inhibition) at 200 ppm [4] | mortality at 200 ppm [5] | mortality at 200 ppm [6] | percent effect (mortality or growth inhibition) at 200 ppm [7]

C#CCN(CC)S(=O)(=O)N1C[C@@H](NC(=O)c2ccc(C3=NO[C@@](c4cc(Cl)cc(Cl)c4)(C(F)(F)F)C3)cc2Cl)CO1 [Compound A161, 2-chloro-4-[(5S)-5-(3,5-dichlorophenyl)-5-(trifluoromethyl)-4H-isoxazol-3-yl]-N-[(4R)-2-[ethyl(prop-2-ynyl)sulfamoyl]isoxazolidin-4-yl]benzamide]
≥ 80%: mortality at 200 ppm [1] | percent effect (mortality or growth inhibition) at 200 ppm [2] | mortality at 200 ppm [3] | percent effect (mortality or growth inhibition) at 200 ppm [4] | mortality at 200 ppm [5] | mortality at 200 ppm [6] | percent effect (mortality or growth inhibition) at 200 ppm [7]

Cc1cc(C2=NO[C@@](c3cc(Cl)cc(Cl)c3)(C(F)(F)F)C2)ccc1C(=O)N[C@@H]1CON(S(=O)(=O)C2CC2)C1 [Compound A230]
≥ 80%: mortality at 200 ppm [1] | percent effect (mortality or growth inhibition) at 200 ppm [2] | mortality at 200 ppm [3] | percent effect (mortality or growth inhibition) at 200 ppm [4] | mortality at 200 ppm [5] | mortality at 200 ppm [6] | percent effect (mortality or growth inhibition) at 200 ppm [7]

Cc1cc(C2=NO[C@](c3cc(Cl)cc(C(F)(F)F)c3)(C(F)(F)F)C2)ccc1C(=O)N[C@H]1CON(S(=O)(=O)CCl)C1 [Compound A217]
≥ 80%: mortality at 200 ppm [1] | percent effect (mortality or growth inhibition) at 200 ppm [2] | mortality at 200 ppm [3] | percent effect (mortality or growth inhibition) at 200 ppm [4] | mortality at 200 ppm [5] | mortality at 200 ppm [6] | percent effect (mortality or growth inhibition) at 200 ppm [7]

Cc1cc(C2=NO[C@@](c3cc(Cl)c(F)c(Cl)c3)(C(F)(F)F)C2)ccc1C(=O)NC1CON(S(=O)(=O)N2CCCC2)C1 (stereo partly drawn) [Compound A99, 4-[(5S)-5-(3,5-dichloro-4-fluoro-phenyl)-5-(trifluoromethyl)-4H-isoxazol-3-yl]-2-methyl-N-(2-pyrrolidin-1-ylsulfonylisoxazolidin-4-yl)benzamide]
≥ 80%: mortality at 200 ppm [1] | percent effect (mortality or growth inhibition) at 200 ppm [2] | mortality at 200 ppm [3] | percent effect (mortality or growth inhibition) at 200 ppm [4] | mortality at 200 ppm [5] | mortality at 200 ppm [6] | percent effect (mortality or growth inhibition) at 200 ppm [7]

CNS(=O)(=O)N1C[C@@H](NC(=O)c2ccc(C3=NO[C@](c4cc(Cl)c(OC(F)F)c(Cl)c4)(C(F)(F)F)C3)cc2C)CO1 [Compound A207, 4-[(5R)-5-[3,5-dichloro-4-(difluoromethoxy)phenyl]-5-(trifluoromethyl)-4H-1,2-oxazol-3-yl]-2-methyl-N-[(4R)-2-(methylsulfamoyl)-1,2-oxazolidin-4-yl]benzamide]
≥ 80%: mortality at 200 ppm [1] | percent effect (mortality or growth inhibition) at 200 ppm [2] | mortality at 200 ppm [3] | percent effect (mortality or growth inhibition) at 200 ppm [4] | mortality at 200 ppm [5] | mortality at 200 ppm [6] | percent effect (mortality or growth inhibition) at 200 ppm [7]

Cc1cc(C2=NO[C@](c3cc(Cl)cc(C(F)F)c3)(C(F)(F)F)C2)ccc1C(=O)N[C@H]1CON(S(C)(=O)=O)C1 [Compound A185]
≥ 80%: mortality at 200 ppm [1] | percent effect (mortality or growth inhibition) at 200 ppm [2] | mortality at 200 ppm [3] | percent effect (mortality or growth inhibition) at 200 ppm [4] | mortality at 200 ppm [5] | mortality at 200 ppm [6] | percent effect (mortality or growth inhibition) at 200 ppm [7]

Cc1cc(C2=NO[C@](c3cc(Cl)cc(Cl)c3)(C(F)(F)F)C2)ccc1C(=O)N[C@H]1CON(S(=O)(=O)CCl)C1 [Compound A166, N-[(4R)-2-(chloromethylsulfonyl)-1,2-oxazolidin-4-yl]-4-[(5R)-5-(3,5-dichlorophenyl)-5-(trifluoromethyl)-4H-1,2-oxazol-3-yl]-2-methylbenzamide]
≥ 80%: mortality at 200 ppm [1] | percent effect (mortality or growth inhibition) at 200 ppm [2] | mortality at 200 ppm [3] | percent effect (mortality or growth inhibition) at 200 ppm [4] | mortality at 200 ppm [5] | mortality at 200 ppm [6] | percent effect (mortality or growth inhibition) at 200 ppm [7]

Cc1cc(C2=NO[C@](c3cc(Cl)c(F)c(Cl)c3)(C(F)(F)F)C2)ccc1C(=O)N[C@H]1CON(S(=O)(=O)NC2(C#N)CC2)C1 [Compound A168]
≥ 80%: mortality at 200 ppm [1] | percent effect (mortality or growth inhibition) at 200 ppm [2] | mortality at 200 ppm [3] | percent effect (mortality or growth inhibition) at 200 ppm [4] | mortality at 200 ppm [5] | mortality at 200 ppm [6] | percent effect (mortality or growth inhibition) at 200 ppm [7]

C#CCN(C(=O)OC(C)(C)C)S(=O)(=O)N1C[C@@H](NC(=O)c2ccc(C3=NO[C@@](c4cc(Cl)cc(Cl)c4)(C(F)(F)F)C3)cc2Cl)CO1 [Compound A152]
≥ 80%: mortality at 200 ppm [1] | percent effect (mortality or growth inhibition) at 200 ppm [2] | mortality at 200 ppm [3] | percent effect (mortality or growth inhibition) at 200 ppm [4] | mortality at 200 ppm [5] | mortality at 200 ppm [6] | percent effect (mortality or growth inhibition) at 200 ppm [7]

Cc1cc(C2=NO[C@](c3cc(Cl)cc(Cl)c3)(C(F)(F)F)C2)ccc1C(=O)N[C@@H]1CON(S(=O)(=O)C(F)F)C1 [Compound A232, 4-[(5R)-5-(3,5-dichlorophenyl)-5-(trifluoromethyl)-4H-1,2-oxazol-3-yl]-N-[(4S)-2-(difluoromethylsulfonyl)-1,2-oxazolidin-4-yl]-2-methylbenzamide]
≥ 80%: mortality at 200 ppm [1] | percent effect (mortality or growth inhibition) at 200 ppm [2] | mortality at 200 ppm [3] | percent effect (mortality or growth inhibition) at 200 ppm [4] | mortality at 200 ppm [5] | mortality at 200 ppm [6] | percent effect (mortality or growth inhibition) at 200 ppm [7]
